Data from publication PMC8879200, “Design, Synthesis, and Biological Evaluation of 4,4’-Difluorobenzhydrol Carbamates as Selective M1 Antagonists” (Pharmaceuticals, 2022).
“And” between values parts separate entries of the source, which are not always exact repeats. Equal values may be shown once. Read-outs that look alike come from different tables or passages of the source.

Legend:
hM3 = target: T1, hM3 (Homo sapiens, UniProt P20309); experiment: Competitive [3H]NMS radioligand binding, CHO-hM3 cell membranes; conditions: for Ki: read-out: Affinity: Ki ± SD, hM3
T1 construct: host or cells: CHO-K1, stably transfected
T1 sequence (P20309 whole entry): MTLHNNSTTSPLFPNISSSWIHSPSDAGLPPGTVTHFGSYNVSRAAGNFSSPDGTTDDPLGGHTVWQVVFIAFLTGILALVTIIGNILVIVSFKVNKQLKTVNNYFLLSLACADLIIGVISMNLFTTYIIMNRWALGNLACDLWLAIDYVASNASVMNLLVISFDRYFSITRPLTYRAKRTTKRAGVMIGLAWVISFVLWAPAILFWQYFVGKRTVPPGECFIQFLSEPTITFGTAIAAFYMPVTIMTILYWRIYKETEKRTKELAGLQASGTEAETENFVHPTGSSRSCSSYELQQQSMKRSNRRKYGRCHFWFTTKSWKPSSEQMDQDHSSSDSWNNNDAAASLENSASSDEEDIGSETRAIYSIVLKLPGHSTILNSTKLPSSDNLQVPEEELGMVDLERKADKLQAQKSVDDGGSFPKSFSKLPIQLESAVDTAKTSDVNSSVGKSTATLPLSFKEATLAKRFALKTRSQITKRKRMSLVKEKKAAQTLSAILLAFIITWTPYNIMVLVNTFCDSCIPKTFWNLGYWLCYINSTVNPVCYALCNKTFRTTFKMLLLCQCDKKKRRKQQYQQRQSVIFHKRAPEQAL
Method: (§1) We first assessed the carbamates’ affinities for human muscarinic acetylcholine receptors subtypes hM1–5 by means of a competitive radioligand binding assay displacing [N-methyl-^3H]scopolamine methyl chloride ([^3H]NMS) in cell membranes expressing the individual receptors.
(§2) Cell membranes bearing hM1-hM5 receptors were prepared as described previously. Briefly, stably transfected CHO-K1 cells were grown to at least 80% confluency in T175 flasks, washed with ice-cold DPBS, and scraped into a mixture of ice-cold of 2 mL 10 mM Tris-HCl, 1 mM EDTA-buffer, pH 7.4 and 200 µL protease inhibitor. A cell homogenate was prepared by passing the cell suspension through a G29 needle. The cell homogenates corresponding to two T175 flasks were combined and subsequently centrifuged (10 min, 1000 × g, 4 °C). Ultracentrifugation of the supernatant (1 h, 100,000 × g, 4 °C) yielded a membrane pellet, which was suspended in 250 µL 50 mM Tris-HCl buffer, pH 7.4 and stored at −80 °C.
(§3) Maximum binding was measured by using 5 µL DMSO, and nonspecific binding was measured by using 5 µL of 1 µM scopolamine in DMSO. […] The membrane-bound radioactivity was recovered by filtration through Whatman™ GF/B glass fibre filters pre-soaked in aqueous 0.1% PEI using an M-36 tygon tubed cell harvester (Brandel®, Gaithersburg, MD, USA). Membranes were washed 3 times with ice-cold washing buffer (50 mM Tris, pH 7.4) before being dried, transferred to 2 mL scintillation cocktail (UltimaGold™, high flashpoint LSC cocktail, PerkinElmer, Waltham, MA, USA) and counted in a β -counter (Hidex TDCR Liquid Scintillation Counter in CPM mode). IC50 values were calculated by a variable slope logistic regression using at least five distinct concentrations of test compounds, pipetted in triplicates.

hM1 = target: T2, hM1 (Homo sapiens, UniProt P11229); experiment: Competitive [3H]NMS radioligand binding, CHO-hM1 cell membranes
T2 construct: host or cells: CHO-K1, stably transfected
T2 sequence (P11229 1-460): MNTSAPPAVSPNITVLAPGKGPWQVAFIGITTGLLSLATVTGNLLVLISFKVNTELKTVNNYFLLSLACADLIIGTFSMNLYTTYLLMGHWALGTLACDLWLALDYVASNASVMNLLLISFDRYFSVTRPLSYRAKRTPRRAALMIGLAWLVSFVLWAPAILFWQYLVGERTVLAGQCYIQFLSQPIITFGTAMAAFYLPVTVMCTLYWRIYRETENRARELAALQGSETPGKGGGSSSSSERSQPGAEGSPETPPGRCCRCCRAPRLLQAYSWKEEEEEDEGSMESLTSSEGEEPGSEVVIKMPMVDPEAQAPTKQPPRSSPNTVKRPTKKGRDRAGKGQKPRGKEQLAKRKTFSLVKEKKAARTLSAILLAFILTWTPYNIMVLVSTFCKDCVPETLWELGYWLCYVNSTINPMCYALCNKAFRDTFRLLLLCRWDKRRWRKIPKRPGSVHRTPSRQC
Method: as §1, §2, §3

hM4 = target: T3, hM4 (Homo sapiens, UniProt P08173); experiment: Competitive [3H]NMS radioligand binding, CHO-hM4 cell membranes
T3 construct: host or cells: CHO-K1, stably transfected
T3 sequence (P08173 1-479): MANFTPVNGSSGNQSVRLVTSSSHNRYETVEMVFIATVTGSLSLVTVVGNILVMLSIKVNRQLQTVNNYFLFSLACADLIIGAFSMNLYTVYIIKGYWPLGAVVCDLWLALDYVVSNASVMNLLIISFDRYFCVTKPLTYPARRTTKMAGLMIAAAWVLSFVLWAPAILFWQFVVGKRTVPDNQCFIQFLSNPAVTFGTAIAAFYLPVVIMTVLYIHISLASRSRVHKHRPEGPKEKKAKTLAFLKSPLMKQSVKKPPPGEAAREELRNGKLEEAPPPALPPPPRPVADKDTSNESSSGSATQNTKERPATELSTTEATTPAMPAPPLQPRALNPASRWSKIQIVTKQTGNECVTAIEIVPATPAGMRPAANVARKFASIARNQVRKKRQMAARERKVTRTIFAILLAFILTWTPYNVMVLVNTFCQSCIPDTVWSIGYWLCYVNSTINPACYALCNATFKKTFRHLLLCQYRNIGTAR
Method: as §1, §2, §3

hM5 = target: T4, hM5 (Homo sapiens, UniProt P08912); experiment: Competitive [3H]NMS radioligand binding, CHO-hM5 cell membranes
T4 construct: host or cells: CHO-K1, stably transfected
T4 sequence (P08912 1-532): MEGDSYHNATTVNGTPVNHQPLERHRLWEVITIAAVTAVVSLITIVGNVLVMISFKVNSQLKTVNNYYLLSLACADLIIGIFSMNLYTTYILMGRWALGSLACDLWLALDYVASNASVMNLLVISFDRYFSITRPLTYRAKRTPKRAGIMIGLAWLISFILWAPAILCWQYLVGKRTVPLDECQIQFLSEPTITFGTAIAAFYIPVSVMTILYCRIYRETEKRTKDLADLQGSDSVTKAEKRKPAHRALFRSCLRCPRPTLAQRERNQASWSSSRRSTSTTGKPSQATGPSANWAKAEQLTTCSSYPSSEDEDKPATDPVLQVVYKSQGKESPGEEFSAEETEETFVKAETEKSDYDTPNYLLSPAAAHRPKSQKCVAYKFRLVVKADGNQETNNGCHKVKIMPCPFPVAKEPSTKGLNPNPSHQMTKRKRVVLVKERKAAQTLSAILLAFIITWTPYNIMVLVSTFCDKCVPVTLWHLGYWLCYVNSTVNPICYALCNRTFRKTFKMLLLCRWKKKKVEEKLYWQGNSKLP
Method: as §1, §2, §3

[1] = High throughput HPLC-logD (lipophilicity); conditions: pH 7.4
Method: Briefly, a mixture of toluene (≥98%, Sigma-Aldrich, St. Louis, MO, USA) and triphenylene (≥99.9%, Carl Roth, Karlsruhe, Germany) was used as internal standard. Each sample was dissolved in the internal standard mixture. Using gradient elution, the injection volume was set to 7 µL, the flow rate was 1.5 mL/min, and the mobile phase consisted of a mixture of methanol and 0.01 M sodium phosphate buffer pH 7.4. The HPLC-logD values were derived from the measured retention times following the previously published equation [27, 30].

hM2 = target: T5, hM2 (Homo sapiens, UniProt P08172); experiment: Competitive [3H]NMS radioligand binding, CHO-hM2 cell membranes; conditions: for Ki: read-out: Affinity: Ki ± SD, hM2
T5 construct: host or cells: CHO-K1, stably transfected
T5 sequence (P08172 1-466): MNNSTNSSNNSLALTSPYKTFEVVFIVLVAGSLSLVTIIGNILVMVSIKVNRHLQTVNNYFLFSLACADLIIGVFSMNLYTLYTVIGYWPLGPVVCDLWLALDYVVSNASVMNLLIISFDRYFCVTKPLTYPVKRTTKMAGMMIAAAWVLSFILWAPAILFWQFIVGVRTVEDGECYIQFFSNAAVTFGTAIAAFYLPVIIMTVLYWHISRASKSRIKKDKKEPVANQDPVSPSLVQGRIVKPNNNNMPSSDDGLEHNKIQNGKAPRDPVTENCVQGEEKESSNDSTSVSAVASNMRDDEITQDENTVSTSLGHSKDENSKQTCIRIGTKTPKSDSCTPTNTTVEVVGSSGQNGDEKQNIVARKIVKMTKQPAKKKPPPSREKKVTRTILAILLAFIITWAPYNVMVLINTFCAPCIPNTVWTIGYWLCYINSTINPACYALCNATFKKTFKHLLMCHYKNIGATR
Method: as §1, §2, §3

[2] = Stability in fully supplemented RPMI1640 cell culture medium; assay type: in vitro ADME; conditions: fully supplemented RPMI1640, ambient temperature, after 24 h
Method: Since the decomposition in cell culture medium of compounds designated for biological testing could impair potential assay readouts, the stabilities of one tertiary carbamate (3) and one secondary carbamate (7) were investigated as representatives for the compound set 1–12. Gratifyingly, the rate of decomposition in fully supplemented RPMI1640 cell culture medium at ambient temperature has been fairly slow, with > 95% of both compounds remaining intact after 24 h (Supplementary Materials, Figure S3). Such stability is adequate with the requirements for carbon-11 labelled PET tracers of around 2–3 half-lives.
The stabilities of 3 and 7 were measured using the HPLC gradient method as described for the purity determination. 4 µL of a test compound’s stock solution in DMSO was diluted with fully supplemented RPMI1640 cell culture medium (10% FBS, 1% L-glutamine, without antibiotics). The stability was measured at ambient temperature and the column oven was set to 20 °C. The samples were measured at 0, 30, 60, 120 min and 24 h.

[3] = inhibition of [3H]NMS binding, CHO-hM1 membranes, read-out: Affinity: Ki ± SD, hM1
[4] = inhibition of [3H]NMS binding, CHO-hM4 membranes, read-out: Affinity: Ki ± SD, hM4
[5] = inhibition of [3H]NMS binding, CHO-hM5 membranes, read-out: Affinity: Ki ± SD, hM5

Ki (hM3) [nM]	Ki (hM1; [3]) [nM]	Ki (hM4; [4]) [nM]	Ki (hM5; [5]) [nM]	chromatographic logD [1]	Ki (hM2) [nM]	Compound remaining intact in cell culture medium [2] [%]	x-Fold selectivity for hM1 vs. hM3 (hM3; ratio of Ki values hM3/hM1) [fold]	x-Fold selectivity for hM1 vs. hM4 (hM4; ratio of Ki values hM4/hM1) [fold]	x-Fold selectivity for hM1 vs. hM5 (hM5; ratio of Ki values hM5/hM1)	x-Fold selectivity for hM1 vs. hM2 (hM2; ratio of Ki values hM2/hM1) [fold]	Compound	Ki (hM1) [nM]	Ki (hM4) [nM]	Ki (hM5) [nM]
226 ± 85.2	15.2 ± 3.6	54.8 ± 20.5	50.6 ± 3.9	3.16 ± 0.01	> 1000						CN1CCN(C(=O)OC(c2ccc(F)cc2)c2ccc(F)cc2)CC1 [Compound 1, Bis(4-fluorophenyl)methyl 4-methylpiperazine-1-carboxylate]			
28.4 ± 10.7	1.2 ± 0.4	14.4 ± 5.5	4.8 ± 1.6	3.2 ± 0.02	227 ± 85.9						CN1CCCN(C(=O)OC(c2ccc(F)cc2)c2ccc(F)cc2)CC1 [Compound 2, Bis(4-fluorophenyl)methyl 4-methyl-1,4-diazepane-1-carboxylate]			
358 ± 83	33.1 ± 8.1	115 ± 51	68 ± 22.1	2.69 ± 0.01	> 1000	> 95					CN1CC2CC1CN2C(=O)OC(c1ccc(F)cc1)c1ccc(F)cc1 (centres unmarked) [Compound 3, Bis(4-fluorophenyl)methyl5-methyl-2,5-diazabicyclo[2.2.1]heptane-2-carboxylate]			
165 ± 37.5	24.9 ± 6.2	150 ± 52.9	231 ± 25.7	2.69 ± 0.01	> 1000		6.6	6.0	9 fold and 9.3 fold	>40	CN1CC2(CCN(C(=O)OC(c3ccc(F)cc3)c3ccc(F)cc3)C2)C1 [Compound 5, Bis(4-fluorophenyl)methyl 2-methyl-2,6-diazaspiro[3.4]octane-6-carboxylate]			

Compound	Ki (hM3) [nM]	Ki (hM1; [3]) [nM]	Ki (hM4; [4]) [nM]	Ki (hM5; [5]) [nM]	chromatographic logD [1]	Ki (hM2) [nM]	Compound remaining intact in cell culture medium [2] [%]	x-Fold selectivity for hM1 vs. hM3 (hM3; ratio of Ki values hM3/hM1) [fold]	x-Fold selectivity for hM1 vs. hM4 (hM4; ratio of Ki values hM4/hM1) [fold]	x-Fold selectivity for hM1 vs. hM5 (hM5; ratio of Ki values hM5/hM1)	x-Fold selectivity for hM1 vs. hM2 (hM2; ratio of Ki values hM2/hM1) [fold]	Ki (hM1) [nM]	Ki (hM4) [nM]	Ki (hM5) [nM]
CN1[C@@H]2CC[C@H]1CN(C(=O)OC(c1ccc(F)cc1)c1ccc(F)cc1)C2 [Compound 4, Bis(4-fluorophenyl)methyl (1R,5S)-8-methyl-3,8-diazabicyclo[3.2.1]octane-3 carboxylate]	142 ± 24.2				3.28 ± 0.03	850 ± 39.8						16.5 ± 2.8	19.6 ± 5.5	41.8 ± 14.8
